Measured values reported in patent publication US10844077B2, “Thiazolyl-containing compounds for treating proliferative diseases” (Dana-Farber Cancer Institute, Inc., priority 2014, dated 2020).
Read-outs that look alike come from different tables or passages of the source.

What was measured:
Format in all cases: cell-based
kinases in BCWM.1 cells [1] = molecular target: kinases in BCWM.1 cells (Homo sapiens, UniProt O00329); settings: PIK3CD; ATP; 1 μM, 90 min; GF
Protocol: (§1) The cells were harvested and lysed. […] Bound kinases were identified and quantitated by ACTIVX as described in Patricelli et al., Biochemistry, 2007, 46(2): 350-358. The compounds were tested in duplicates against duplicate or quadruplicate control samples.

kinases in BCWM.1 cells [2] = molecular target: kinases in BCWM.1 cells (Homo sapiens, UniProt O00750); settings: PIK3C2B; ATP; 1 μM, 90 min; GF
Protocol: as §1

kinases in BCWM.1 cells [3] = molecular target: kinases in BCWM.1 cells (Homo sapiens, UniProt O15530); settings: PDK1; Lys1; 1 μM, 90 min; GF
Protocol: as §1

kinases in BCWM.1 cells [4] = molecular target: kinases in BCWM.1 cells (Homo sapiens, UniProt O43318); settings: TAK1; Lys2; 1 μM, 90 min; GF
Protocol: as §1

kinases in BCWM.1 cells [5] = molecular target: kinases in BCWM.1 cells (Homo sapiens, UniProt O94921)
Protocol: as §1

kinases in BCWM.1 cells [6] = molecular target: kinases in BCWM.1 cells (Homo sapiens, UniProt O95819)
Sequence of kinases in BCWM.1 cells (Homo sapiens, UniProt O95819) (O95819 2-1239 limits assumed): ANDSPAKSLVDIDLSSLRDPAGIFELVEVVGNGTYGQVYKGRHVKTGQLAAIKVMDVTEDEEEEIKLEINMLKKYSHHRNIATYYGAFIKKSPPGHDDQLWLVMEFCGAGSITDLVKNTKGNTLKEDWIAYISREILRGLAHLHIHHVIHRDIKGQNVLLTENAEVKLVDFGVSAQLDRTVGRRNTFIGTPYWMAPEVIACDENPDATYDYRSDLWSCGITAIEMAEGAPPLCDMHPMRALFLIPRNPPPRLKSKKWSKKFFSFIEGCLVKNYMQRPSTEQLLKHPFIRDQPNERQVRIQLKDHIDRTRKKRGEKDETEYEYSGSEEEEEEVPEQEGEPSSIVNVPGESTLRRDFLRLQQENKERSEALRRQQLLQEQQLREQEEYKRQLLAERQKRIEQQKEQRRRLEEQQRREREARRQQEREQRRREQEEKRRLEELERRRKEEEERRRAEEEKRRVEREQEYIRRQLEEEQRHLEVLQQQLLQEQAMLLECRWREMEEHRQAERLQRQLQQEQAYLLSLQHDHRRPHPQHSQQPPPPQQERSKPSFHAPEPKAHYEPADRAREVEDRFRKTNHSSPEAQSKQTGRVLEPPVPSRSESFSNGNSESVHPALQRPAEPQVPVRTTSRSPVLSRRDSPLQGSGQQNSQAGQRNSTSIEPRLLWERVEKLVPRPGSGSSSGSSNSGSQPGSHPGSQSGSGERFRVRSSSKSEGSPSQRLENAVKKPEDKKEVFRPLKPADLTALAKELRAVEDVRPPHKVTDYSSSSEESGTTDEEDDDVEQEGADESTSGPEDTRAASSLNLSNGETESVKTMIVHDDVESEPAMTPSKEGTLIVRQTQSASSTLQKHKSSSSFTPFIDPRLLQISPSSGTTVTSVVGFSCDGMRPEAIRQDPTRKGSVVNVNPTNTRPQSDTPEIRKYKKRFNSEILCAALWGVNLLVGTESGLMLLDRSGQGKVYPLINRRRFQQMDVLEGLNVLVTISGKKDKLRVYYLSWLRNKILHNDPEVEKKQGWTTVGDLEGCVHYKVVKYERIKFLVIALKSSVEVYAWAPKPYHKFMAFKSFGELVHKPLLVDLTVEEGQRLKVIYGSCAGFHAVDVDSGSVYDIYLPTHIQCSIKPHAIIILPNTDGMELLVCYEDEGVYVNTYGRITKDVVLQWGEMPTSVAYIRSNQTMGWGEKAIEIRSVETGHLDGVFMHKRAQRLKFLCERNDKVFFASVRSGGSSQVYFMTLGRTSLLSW
Protocol: as §1

kinases in BCWM.1 cells [7] = molecular target: kinases in BCWM.1 cells (Homo sapiens, UniProt P12931); settings: SRC; Lys1; 1 μM, 90 min; GF
Sequence of kinases in BCWM.1 cells (Homo sapiens, UniProt P12931) (P12931 2-536 limits assumed): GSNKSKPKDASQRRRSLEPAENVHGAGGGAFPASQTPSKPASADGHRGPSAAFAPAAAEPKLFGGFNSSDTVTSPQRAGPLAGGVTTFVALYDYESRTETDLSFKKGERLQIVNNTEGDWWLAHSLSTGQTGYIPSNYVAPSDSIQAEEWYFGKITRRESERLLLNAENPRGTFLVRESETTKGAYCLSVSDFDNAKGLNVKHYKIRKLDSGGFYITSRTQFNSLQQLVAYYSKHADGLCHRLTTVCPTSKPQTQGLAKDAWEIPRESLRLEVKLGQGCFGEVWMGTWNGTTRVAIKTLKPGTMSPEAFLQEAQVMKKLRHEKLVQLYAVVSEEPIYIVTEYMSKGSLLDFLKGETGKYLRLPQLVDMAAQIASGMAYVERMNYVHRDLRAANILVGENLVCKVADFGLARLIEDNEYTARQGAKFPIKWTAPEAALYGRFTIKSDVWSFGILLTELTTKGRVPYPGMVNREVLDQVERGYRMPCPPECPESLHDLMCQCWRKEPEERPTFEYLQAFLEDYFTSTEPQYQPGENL
Protocol: as §1

kinases in BCWM.1 cells [8] = molecular target: kinases in BCWM.1 cells (Homo sapiens, UniProt P19525); settings: PKR; Lys2; 1 μM, 90 min; GF
Sequence of kinases in BCWM.1 cells (Homo sapiens, UniProt P19525) (P19525 2-551 limits assumed): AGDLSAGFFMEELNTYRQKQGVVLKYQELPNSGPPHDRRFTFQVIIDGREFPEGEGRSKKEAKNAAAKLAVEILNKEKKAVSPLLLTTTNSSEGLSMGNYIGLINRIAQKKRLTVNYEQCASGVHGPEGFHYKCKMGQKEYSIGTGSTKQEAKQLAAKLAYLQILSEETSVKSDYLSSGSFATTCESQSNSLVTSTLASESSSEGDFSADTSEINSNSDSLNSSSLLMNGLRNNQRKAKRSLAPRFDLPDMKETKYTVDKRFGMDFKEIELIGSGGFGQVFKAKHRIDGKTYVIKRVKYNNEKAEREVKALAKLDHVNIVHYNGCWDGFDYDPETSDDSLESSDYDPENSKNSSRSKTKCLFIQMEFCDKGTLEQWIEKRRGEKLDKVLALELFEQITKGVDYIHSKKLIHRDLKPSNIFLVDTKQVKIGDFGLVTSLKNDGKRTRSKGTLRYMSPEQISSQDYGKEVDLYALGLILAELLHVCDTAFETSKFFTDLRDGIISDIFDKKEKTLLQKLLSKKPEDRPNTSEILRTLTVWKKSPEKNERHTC
Protocol: as §1

kinases in BCWM.1 cells [9] = molecular target: kinases in BCWM.1 cells (Homo sapiens, UniProt P21127); settings: PITSLRE; Lys2; 1 μM, 90 min; GF
Protocol: as §1

kinases in BCWM.1 cells [10] = molecular target: kinases in BCWM.1 cells (Homo sapiens, UniProt P29597); settings: TYK2 domain2; Activation Loop; 1 μM, 90 min; GF
Protocol: as §1

kinases in BCWM.1 cells [11] = molecular target: kinases in BCWM.1 cells (Homo sapiens, UniProt P42338); settings: PIK3CB; ATP; 1 μM, 90 min; GF
Protocol: as §1

kinases in BCWM.1 cells [12] = molecular target: kinases in BCWM.1 cells (Homo sapiens, UniProt P42680); settings: TEC; Activation Loop; 1 μM, 90 min; GF
Protocol: as §1

kinases in BCWM.1 cells [13] = molecular target: kinases in BCWM.1 cells (Homo sapiens, UniProt P51812); settings: Lys2, 1 μM, 90 min, GF
Protocol: as §1

kinases in BCWM.1 cells [14] = molecular target: kinases in BCWM.1 cells (Homo sapiens, UniProt P51957); settings: NEK4; Lys2; 1 μM, 90 min; GF
Protocol: as §1

kinases in BCWM.1 cells [15] = molecular target: kinases in BCWM.1 cells (Homo sapiens, UniProt P53350); settings: PLK1; Lys1; 1 μM, 90 min; GF
Sequence of kinases in BCWM.1 cells (Homo sapiens, UniProt P53350) (P53350 2-603 limits assumed): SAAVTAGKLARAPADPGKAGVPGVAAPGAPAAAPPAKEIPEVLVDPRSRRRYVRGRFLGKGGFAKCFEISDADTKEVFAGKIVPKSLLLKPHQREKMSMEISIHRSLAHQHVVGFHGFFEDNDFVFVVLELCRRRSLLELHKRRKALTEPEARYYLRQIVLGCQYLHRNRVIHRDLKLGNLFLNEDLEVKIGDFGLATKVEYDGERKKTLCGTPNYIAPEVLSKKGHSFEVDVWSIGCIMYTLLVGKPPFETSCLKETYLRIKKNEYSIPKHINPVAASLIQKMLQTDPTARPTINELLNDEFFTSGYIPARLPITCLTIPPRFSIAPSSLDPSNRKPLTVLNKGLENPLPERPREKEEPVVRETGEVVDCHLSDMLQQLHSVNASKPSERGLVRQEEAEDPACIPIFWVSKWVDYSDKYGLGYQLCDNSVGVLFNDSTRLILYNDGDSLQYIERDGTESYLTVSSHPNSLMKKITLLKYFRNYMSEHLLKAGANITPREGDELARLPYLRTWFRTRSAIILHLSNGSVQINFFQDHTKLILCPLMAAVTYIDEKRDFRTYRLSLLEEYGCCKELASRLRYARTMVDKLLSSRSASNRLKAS
Protocol: as §1

kinases in BCWM.1 cells [16] = molecular target: kinases in BCWM.1 cells (Homo sapiens, UniProt Q13464); settings: ROCK1; Protein Kinase Domain; 1 μM, 90 min; GF
Protocol: as §1

kinases in BCWM.1 cells [17] = molecular target: kinases in BCWM.1 cells (Homo sapiens, UniProt Q13523); settings: PRP4; Lys2; 1 μM, 90 min; GF
Sequence of kinases in BCWM.1 cells (Homo sapiens, UniProt Q13523) (Q13523 2-1007 limits assumed): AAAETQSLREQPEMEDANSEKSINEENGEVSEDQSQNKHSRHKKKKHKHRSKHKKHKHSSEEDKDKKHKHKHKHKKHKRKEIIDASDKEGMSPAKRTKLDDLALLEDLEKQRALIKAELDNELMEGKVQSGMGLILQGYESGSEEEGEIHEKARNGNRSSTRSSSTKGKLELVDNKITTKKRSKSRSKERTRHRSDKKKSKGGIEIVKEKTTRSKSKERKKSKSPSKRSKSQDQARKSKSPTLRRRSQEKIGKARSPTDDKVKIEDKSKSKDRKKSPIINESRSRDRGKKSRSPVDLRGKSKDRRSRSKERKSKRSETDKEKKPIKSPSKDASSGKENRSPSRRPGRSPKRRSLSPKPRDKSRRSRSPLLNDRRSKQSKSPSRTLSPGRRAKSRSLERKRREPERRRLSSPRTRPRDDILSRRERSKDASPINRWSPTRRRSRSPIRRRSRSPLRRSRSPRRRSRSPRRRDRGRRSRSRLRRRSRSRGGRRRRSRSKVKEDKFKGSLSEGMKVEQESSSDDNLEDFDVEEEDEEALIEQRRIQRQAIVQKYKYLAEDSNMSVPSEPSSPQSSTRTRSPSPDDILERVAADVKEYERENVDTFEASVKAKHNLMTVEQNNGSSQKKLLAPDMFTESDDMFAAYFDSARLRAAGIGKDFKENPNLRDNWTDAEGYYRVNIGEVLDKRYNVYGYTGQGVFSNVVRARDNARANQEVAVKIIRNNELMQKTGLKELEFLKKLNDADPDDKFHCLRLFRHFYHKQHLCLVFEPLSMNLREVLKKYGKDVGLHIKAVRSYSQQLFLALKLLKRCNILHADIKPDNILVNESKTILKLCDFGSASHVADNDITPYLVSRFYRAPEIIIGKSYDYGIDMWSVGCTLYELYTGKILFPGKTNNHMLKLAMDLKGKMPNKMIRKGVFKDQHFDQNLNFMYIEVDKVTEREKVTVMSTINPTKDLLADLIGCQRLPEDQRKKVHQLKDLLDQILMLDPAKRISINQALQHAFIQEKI
Protocol: as §1

kinases in BCWM.1 cells [18] = molecular target: kinases in BCWM.1 cells (Homo sapiens, UniProt Q14289); settings: PYK2; Activation Loop; 1 μM, 90 min; GF
Protocol: as §1

kinases in BCWM.1 cells [19] = molecular target: kinases in BCWM.1 cells (Homo sapiens, UniProt Q16539); settings: p38a, 1 μM, 90 min, GF
Sequence of kinases in BCWM.1 cells (Homo sapiens, UniProt Q16539) (Q16539 2-360 limits assumed): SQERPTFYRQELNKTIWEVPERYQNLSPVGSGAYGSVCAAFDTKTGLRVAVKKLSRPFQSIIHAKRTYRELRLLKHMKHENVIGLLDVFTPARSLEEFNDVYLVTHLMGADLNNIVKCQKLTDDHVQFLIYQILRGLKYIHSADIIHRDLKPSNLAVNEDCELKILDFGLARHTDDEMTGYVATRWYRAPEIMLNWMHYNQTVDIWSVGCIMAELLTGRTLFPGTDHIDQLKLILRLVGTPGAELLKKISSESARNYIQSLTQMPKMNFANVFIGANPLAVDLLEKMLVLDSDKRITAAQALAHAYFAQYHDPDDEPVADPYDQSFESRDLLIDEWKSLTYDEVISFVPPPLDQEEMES
Protocol: as §1

kinases in BCWM.1 cells [20] = molecular target: kinases in BCWM.1 cells (Homo sapiens, UniProt Q6PHR2); settings: ULK3; Lys2; 1 μM, 90 min; GF
Protocol: as §1

kinases in BCWM.1 cells [21] = molecular target: kinases in BCWM.1 cells (Homo sapiens, UniProt Q7RTN6); settings: STLK5; Activation Loop; 1 μM, 90 min; GF
Protocol: as §1

kinases in BCWM.1 cells [22] = molecular target: kinases in BCWM.1 cells (Homo sapiens, UniProt Q86SG6); settings: NEK8; Lys2; 1 μM, 90 min; GF
Protocol: as §1

kinases in BCWM.1 cells [23] = molecular target: kinases in BCWM.1 cells (Homo sapiens, UniProt Q86Y07); settings: VRK2; Lys2; 1 μM, 90 min; GF
Protocol: as §1

kinases in BCWM.1 cells [24] = molecular target: kinases in BCWM.1 cells (Homo sapiens, UniProt Q8TBX8); settings: PIP4K2C; ATP; 1 μM, 90 min; GF
Sequence of kinases in BCWM.1 cells (Homo sapiens, UniProt Q8TBX8) (Q8TBX8 2-421 limits assumed): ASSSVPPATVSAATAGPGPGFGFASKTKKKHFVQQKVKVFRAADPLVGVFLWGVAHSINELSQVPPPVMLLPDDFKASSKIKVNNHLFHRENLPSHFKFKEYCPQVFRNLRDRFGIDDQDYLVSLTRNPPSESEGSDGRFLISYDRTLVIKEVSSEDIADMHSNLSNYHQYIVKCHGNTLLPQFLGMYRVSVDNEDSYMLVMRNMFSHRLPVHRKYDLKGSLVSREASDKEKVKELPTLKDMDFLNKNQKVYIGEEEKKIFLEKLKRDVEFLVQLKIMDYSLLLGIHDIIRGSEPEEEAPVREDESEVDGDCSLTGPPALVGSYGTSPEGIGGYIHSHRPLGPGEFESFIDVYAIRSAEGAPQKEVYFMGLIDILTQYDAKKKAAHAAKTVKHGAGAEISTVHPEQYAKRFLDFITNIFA
Protocol: as §1

kinases in BCWM.1 cells [25] = molecular target: kinases in BCWM.1 cells (Homo sapiens, UniProt Q96PY6); settings: NEK1; Lys2; 1 μM, 90 min; GF
Protocol: as §1

kinases in BCWM.1 cells [26] = molecular target: kinases in BCWM.1 cells (Homo sapiens, UniProt Q96SB4); settings: SRPK1; Lys2; 1 μM, 90 min; GF
Protocol: as §1

kinases in BCWM.1 cells [27] = molecular target: kinases in BCWM.1 cells (Homo sapiens, UniProt Q9H2G2); settings: SLK; Lys2; 1 μM, 90 min; GF
Protocol: as §1

kinases in BCWM.1 cells [28] = molecular target: kinases in BCWM.1 cells (Homo sapiens, UniProt Q9UBF8); settings: PI4KB; ATP; 1 μM, 90 min; GF
Protocol: as §1

kinases in BCWM.1 cells [29] = molecular target: kinases in BCWM.1 cells (Homo sapiens, UniProt Q9Y572); settings: RIPK3; Lys2; 1 μM, 90 min; GF
Protocol: as §1

| SMILES | % change of MS signal compared to control sample (kinases in BCWM.1 cells [1]) [%] | % change of MS signal compared to control sample (kinases in BCWM.1 cells [2]) [%] | % change of MS signal compared to control sample (kinases in BCWM.1 cells [3]) [%] | % change of MS signal compared to control sample (kinases in BCWM.1 cells [4]) [%] | % change of MS signal compared to control sample (kinases in BCWM.1 cells [5]) [%] | % change of MS signal compared to control sample (kinases in BCWM.1 cells [7]) [%] | % change of MS signal compared to control sample (kinases in BCWM.1 cells [8]) [%] | % change of MS signal compared to control sample (kinases in BCWM.1 cells [9]) [%] | % change of MS signal compared to control sample (kinases in BCWM.1 cells [10]) [%] | % change of MS signal compared to control sample (kinases in BCWM.1 cells [11]) [%] | % change of MS signal compared to control sample (kinases in BCWM.1 cells [12]) [%] | % change of MS signal compared to control sample (kinases in BCWM.1 cells [13]; RSK2 domain1) [%] | % change of MS signal compared to control sample (kinases in BCWM.1 cells [13]; RSK2 domain2) [%] | % change of MS signal compared to control sample (kinases in BCWM.1 cells [14]) [%] | % change of MS signal compared to control sample (kinases in BCWM.1 cells [15]) [%] | % change of MS signal compared to control sample (kinases in BCWM.1 cells [16]) [%] | % change of MS signal compared to control sample (kinases in BCWM.1 cells [17]) [%] | % change of MS signal compared to control sample (kinases in BCWM.1 cells [18]) [%] | % change of MS signal compared to control sample (kinases in BCWM.1 cells [19]; Lys2) [%] | % change of MS signal compared to control sample (kinases in BCWM.1 cells [19]; Protein Kinase Domain) [%] | further results |
| --- | --- | --- | --- | --- | --- | --- | --- | --- | --- | --- | --- | --- | --- | --- | --- | --- | --- | --- | --- | --- | --- |
| C=CC(=O)N1CC[C@H](Nc2nccc(Nc3ncc(C(=O)Nc4c(C)cccc4C)s3)n2)C1 [Example I-3] | −17.2 | 39.1 | −3.5 | −2.5 | −6.6 | 96.7 | −17.6 | −8.6 | −5.5 | 39.9 | >91 | −15.5 | −16.5 | 7.3 | −23 | −16.9 | −6.2 | −12.1 | 70 | 67.9 | % change of MS signal compared to control sample (kinases in BCWM.1 cells [6]; ZC1/HGK, Lys1, 1 μM, 90 min, GF): −16.8%; % change of MS signal compared to control sample (kinases in BCWM.1 cells [20]): −47.2%; % change of MS signal compared to control sample (kinases in BCWM.1 cells [21]): −17.7%; % change of MS signal compared to control sample (kinases in BCWM.1 cells [22]): −14.5%; % change of MS signal compared to control sample (kinases in BCWM.1 cells [23]): 5.7%; % change of MS signal compared to control sample (kinases in BCWM.1 cells [24]): 27%; % change of MS signal compared to control sample (kinases in BCWM.1 cells [25]): −7.6%; % change of MS signal compared to control sample (kinases in BCWM.1 cells [26]): −16.8%; % change of MS signal compared to control sample (kinases in BCWM.1 cells [27]): 1.6%; % change of MS signal compared to control sample (kinases in BCWM.1 cells [28]): −4.1%; % change of MS signal compared to control sample (kinases in BCWM.1 cells [29]): 22% |
| CCC(=O)N1CC[C@H](Nc2nccc(Nc3ncc(C(=O)Nc4c(C)cccc4C)s3)n2)C1 [Example I-9] | −9.7 | 12.7 | −6.6 | 1 | −3.1 | 86.1 | −3.8 | −0.6 | −16.8 | 18.5 | 40.8 | −8.4 | 1.6 | −1.7 | 9.6 | −2.1 | −15.7 | −0.9 | 9.8 | 8.7 | % change of MS signal compared to control sample (kinases in BCWM.1 cells [6]): 15.3%; % change of MS signal compared to control sample (kinases in BCWM.1 cells [20]): −9.6%; % change of MS signal compared to control sample (kinases in BCWM.1 cells [21]): −9.4%; % change of MS signal compared to control sample (kinases in BCWM.1 cells [22]): −5.8%; % change of MS signal compared to control sample (kinases in BCWM.1 cells [23]): −1.6%; % change of MS signal compared to control sample (kinases in BCWM.1 cells [24]): −3.9%; % change of MS signal compared to control sample (kinases in BCWM.1 cells [25]): 4.6%; % change of MS signal compared to control sample (kinases in BCWM.1 cells [26]): −0.4%; % change of MS signal compared to control sample (kinases in BCWM.1 cells [27]): 4.3%; % change of MS signal compared to control sample (kinases in BCWM.1 cells [28]): −3.1%; % change of MS signal compared to control sample (kinases in BCWM.1 cells [29]): −27% |
